SMILES strings stand for the structures.

30 compounds from patent publication US8299067B2, “5-demethoxyfumagillol and derivatives thereof” (Versitech Limited, priority 2008, dated 2012) can be followed below.

Assay [1] has as its system bovine arotic endothelial cells (BAEC). Nature of the assay: BAEC proliferation assay. To be noted: tritiated thymidine incorporation, 24 hours drug plus 6 hours label, 0.5% DMSO. It is filed as cell-based. The method, then:
(A) BAEC Proliferation Assay
About 2500 bovine arotic endothelial cells (BAEC) in 195 μl of DMEM (Dulbecco's Modified Eagle's Medium) were plated per well of a 96-well plate and grown at 37° C. and 5% CO2. Cells were allowed to recover for 12 hours. 1 μL of 200 times drug stock solution was added to each treatment well. The final vehicle (DMSO) concentration was 0.5%. Vehicle only was used as a control for maximum proliferation. Three wells were treated for each drug concentration. After 24 hours, 1 μCi of tritiated thymidine (diluted in DMEM to a total volume of 10 μL) was added to each well. After additional 6 hours incubation, each well was washed in 180 μl of PBS buffer. 70 μL of trypsin was added to each well. Plates were incubated for 5 minutes at 37° C. Cells were harvested using a Harvester 96 Mach III M (Tomtec) and transferred to glass fiber filters (Wallac). 6 mL of Betaplate Scint (PerkinElmer) was added to each filter in a sealed sample bag. Scintillation counting was done in using a 1450 MicroBeta counter (Wallac). CPM were normalized to vehicle control, averaged across three replicates, and fit to the following equation using GraphPadPrism v4.0: Y=Bottom+(Top-Bottom)/(1+10^((Log EC50−X)*HillSlope)) wherein X is the logarithm of concentration and Y is the response. Y started at Bottom and went to Top with a sigmoid shape. The bottom value was constrained to zero.
A general note: Dividing cells build labelled thymidine or BrdU into new DNA.

In assay [2] the target is T1, Recombinant human MetAP-2 (Homo sapiens, UniProt P50579).
T1 construct: made in house; host or cells: insect cells
T1 sequence (P50579 whole entry): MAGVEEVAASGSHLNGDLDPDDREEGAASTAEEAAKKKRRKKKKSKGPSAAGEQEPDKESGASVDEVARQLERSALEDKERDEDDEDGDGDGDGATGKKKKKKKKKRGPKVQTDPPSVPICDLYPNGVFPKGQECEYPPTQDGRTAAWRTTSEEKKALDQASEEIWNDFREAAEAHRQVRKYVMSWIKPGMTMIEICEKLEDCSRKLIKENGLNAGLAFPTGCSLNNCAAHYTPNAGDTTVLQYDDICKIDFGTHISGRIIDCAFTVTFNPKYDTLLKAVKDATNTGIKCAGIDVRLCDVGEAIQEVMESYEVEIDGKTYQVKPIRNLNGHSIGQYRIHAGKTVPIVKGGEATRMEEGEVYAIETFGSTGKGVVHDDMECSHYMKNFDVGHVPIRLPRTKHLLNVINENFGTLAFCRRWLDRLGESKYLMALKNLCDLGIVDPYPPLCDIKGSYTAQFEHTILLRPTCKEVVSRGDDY
Briefly: MetAP-2 enzymatic assay. It is filed as biochemical. Conditions: 1 nM purified human MetAP-2, inhibitor incubated at 37° C. for 30 minutes, 1 mM Met-Gly-Met-Met, released methionine. The method, then: (B) MetAP-2 Enzymatic Assay Recombinant human MetAP-2 was expressed and purified from insect cells as previously described (Li, X.; Chang, Y.-H. Biochem. Biophys. Res. Commun. 1996, 227, 152). […] To start the enzymatic reaction, […] was added to a concentration of 1 mM to the reaction mixture. Released methionine was quantified at different time points (0, 2, 3 and 5 min) using the method of Zuo et al (Zuo, S.; Guo, Q.; Ling, C.; Chang, Y-.H. Mol. Gen. Genet. 1995, 246, 247).

Consider `COC(=O)[C@@H](NC(=O)O[C@@H]1CC[C@]2(CO2)[C@@H]([C@@]2(C)O[C@@H]2CC=C(C)C)C1)C(C)C` [Compound 17p], for which the IC50 (usually the point on the concentration scale where inhibition reaches its midpoint) was 0.062 nM in assay [1] (Bos taurus, BAEC, 30 h) and 27 nM in assay [2].
The like results for `CC(C)=CC[C@H]1O[C@]1(C)[C@H]1C[C@H](OC(=O)N[C@@H](C(N)=O)C(C)C)CC[C@]12CO2` [Compound 17a] were, in that order, 0.21 nM and 29 nM.
Consider `CC(C)=CC[C@H]1O[C@]1(C)[C@H]1C[C@H](OC(=O)N2CCC2)CC[C@]12CO2` [Compound 17r], for which the IC50 in assay [1] (Bos taurus, BAEC, 30 h) came to 0.038 nM.
Still for that read-out and setting: for `CC(C)=CC[C@H]1O[C@]1(C)[C@H]1C[C@H](OC(=O)N2CCOCC2)CC[C@]12CO2` [Compound 17z] the value was 0.048 nM.
Turning to `CC(C)=CC[C@H]1O[C@]1(C)[C@H]1C[C@H](OC(=O)N[C@@H](Cc2ccccc2)C(=O)NC2CC2)CC[C@]12CO2` [Compound 17j], the IC50 stood at 0.027 nM in assay [1] (Bos taurus, BAEC, 30 h) and 41 nM in assay [2].
For the compound `C#CCNC(=O)[C@@H](Cc1ccccc1)NC(=O)O[C@@H]1CC[C@]2(CO2)[C@@H]([C@@]2(C)O[C@@H]2CC=C(C)C)C1` [Compound 17l], the IC50 in assay [1] (Bos taurus, BAEC, 30 h) stood at 0.051 nM; in assay [2], 21 nM.
The like results for `CC(C)=CC[C@H]1O[C@]1(C)[C@H]1C[C@H](OC(=O)N[C@H](Cc2ccccc2)C(N)=O)CC[C@]12CO2` [Compound 17c] were, in that order, 0.039 nM and 16 nM.
With `CC(C)=CC[C@H]1O[C@]1(C)[C@H]1C[C@H](OC(=O)NN2CCCCC2)CC[C@]12CO2` [Compound 17ab], the IC50 in assay [1] (Bos taurus, BAEC, 30 h) was found to be 0.04 nM.
Consider `CC(C)=CC[C@H]1O[C@]1(C)[C@H]1C[C@H](OC(=O)N[C@H](C(N)=O)C(C)C)CC[C@]12CO2` [Compound 17b], for which the IC50 in assay [1] (Bos taurus, BAEC, 30 h) came to 0.11 nM; in assay [2], 50 nM.
Taken in the same sequence, the figures for `CC(C)=CC[C@H]1O[C@]1(C)[C@H]1C[C@H](OC(=O)N2CCN(c3ccc([N+](=O)[O-])cc3)CC2)CC[C@]12CO2` [Compound 17q] were 0.02 nM and 26 nM.
`C=CCN1CCN(C(=O)O[C@@H]2CC[C@]3(CO3)[C@@H]([C@@]3(C)O[C@@H]3CC=C(C)C)C2)CC1` [Compound 17x]: the IC50 in assay [1] (Bos taurus, BAEC, 30 h) was determined as 0.047 nM.
Take `CC(C)=CC[C@H]1O[C@]1(C)[C@H]1C[C@H](OC(=O)N2CCN(c3ccc(F)cc3)CC2)CC[C@]12CO2` [Compound 17v]: in assay [1] (Bos taurus, BAEC, 30 h), the IC50 stood at 0.068 nM.
Turning to `CC(C)=CC[C@H]1O[C@]1(C)[C@H]1C[C@H](OC(=O)N[C@H](CC(C)C)C(N)=O)CC[C@]12CO2` [Compound 17f], the IC50 in assay [1] (Bos taurus, BAEC, 30 h) came to 0.092 nM; in assay [2], 39 nM.
For `C=CCNC(=O)[C@H](Cc1ccccc1)NC(=O)O[C@@H]1CC[C@]2(CO2)[C@@H]([C@@]2(C)O[C@@H]2CC=C(C)C)C1` [Compound 17i], the IC50 in assay [1] (Bos taurus, BAEC, 30 h) was found to be 0.059 nM; in assay [2] it was 47 nM.
For `COc1ccc(CNC(=O)[C@H](Cc2ccccc2)NC(=O)O[C@@H]2CC[C@]3(CO3)[C@@H]([C@@]3(C)O[C@@H]3CC=C(C)C)C2)cc1` [Compound 17m], the IC50 in assay [1] (Bos taurus, BAEC, 30 h) was determined as 0.19 nM; in assay [2] it was 11 nM.
For the compound `CC(C)=CC[C@H]1O[C@]1(C)[C@H]1C[C@H](OC(=O)N[C@H](C(=O)NC2CCCC2)C(C)C)CC[C@]12CO2` [Compound 17o], the IC50 in assay [1] (Bos taurus, BAEC, 30 h) worked out at 0.035 nM; in assay [2], 28 nM.
Turning to `CC(C)=CC[C@H]1O[C@]1(C)[C@H]1C[C@H](OC(=O)N2CCN(CC3CCCCC3)CC2)CC[C@]12CO2` [Compound 17w], the IC50 in assay [1] (Bos taurus, BAEC, 30 h) was 0.074 nM.
With `CC(C)=CC[C@H]1O[C@]1(C)[C@H]1C[C@H](OC(=O)N[C@H](C(=O)NC2CC2)C(C)C)CC[C@]12CO2` [Compound 17n], the IC50 in assay [1] (Bos taurus, BAEC, 30 h) was found to be 0.031 nM; in assay [2] it was 19 nM.
On to `CC(C)=CC[C@H]1O[C@]1(C)[C@H]1C[C@H](OC(=O)N[C@@H](Cc2ccccc2)C(=O)N2CCOCC2)CC[C@]12CO2` [Compound 17h], for which the IC50 in assay [1] (Bos taurus, BAEC, 30 h) stood at 0.079 nM; in assay [2], 44 nM.
Taken in the same sequence, the figures for `CC(C)=CC[C@H]1O[C@]1(C)[C@H]1C[C@H](OC(=O)N[C@@H](C(N)=O)c2ccccc2)CC[C@]12CO2` [Compound 17e] were 0.085 nM and 42 nM.
In the case of `CC(C)=CC[C@H]1O[C@]1(C)[C@H]1C[C@H](OC(=O)N2CCN(C)CC2)CC[C@]12CO2` [Compound 17u], the half-inhibitory concentration (IC50) in assay [1] (Bos taurus, BAEC, 30 h) came to 0.089 nM.
With `CO[C@@H]1[C@H](O)CC[C@]2(CO2)[C@H]1[C@@]1(C)O[C@@H]1CC=C(C)C` [Fumagillol], the IC50 in assay [1] worked out at 2.04 nM; in assay [2], 909 nM.
For the compound `CC(C)=CC[C@H]1O[C@]1(C)[C@H]1C[C@H](OC(=O)N[C@@H](Cc2ccccc2)C(=O)N2CCN(Cc3ccc(F)cc3)CC2)CC[C@]12CO2` [Compound 17k], the IC50 in assay [1] (Bos taurus, BAEC, 30 h) came out at 0.21 nM; in assay [2], 12 nM.
For the compound `CC(C)=CC[C@H]1O[C@]1(C)[C@H]1C[C@H](OC(=O)N[C@@H](Cc2ccccc2)C(N)=O)CC[C@]12CO2` [Compound 17d], the IC50 in assay [1] (Bos taurus, BAEC, 30 h) came out at 0.067 nM; in assay [2] it was 56 nM.
Turning to `CC(C)=CC[C@H]1O[C@]1(C)[C@H]1C[C@H](OC(=O)Nc2nccs2)CC[C@]12CO2` [Compound 17ac], in assay [1] (Bos taurus, BAEC, 30 h), the IC50 was 0.038 nM.
Take `CC(C)=CC[C@H]1O[C@]1(C)[C@H]1C[C@H](OC(=O)N2CCCCC2)CC[C@]12CO2` [Compound 17t]: the IC50 in assay [1] (Bos taurus, BAEC, 30 h) was determined as 0.081 nM.
For `CC(C)=CCC1OC1(C)C1CC(O)CCC12CO2` (stereo not shown) [5-Demethoxyfumagillol, 5-demethoxyfumagillol], the IC50 worked out at 0.28 nM in assay [1] and 975 nM in assay [2].
For `CC(C)=CC[C@H]1O[C@]1(C)[C@H]1C[C@H](OC(=O)N2CCCC2)CC[C@]12CO2` [Compound 17s], the IC50 in assay [1] (Bos taurus, BAEC, 30 h) came to 0.04 nM.
Turning to `CC(C)=CC[C@H]1O[C@]1(C)[C@H]1C[C@H](OC(=O)N2CCN(C3CCCC3)CC2)CC[C@]12CO2` [Compound 17y], the IC50 in assay [1] (Bos taurus, BAEC, 30 h) was 0.031 nM.
On to `CC(C)=CC[C@H]1O[C@]1(C)[C@H]1C[C@H](OC(=O)N[C@@H](Cc2ccccc2)C(=O)NCCCN=[N+]=[N-])CC[C@]12CO2` [Compound 17g], for which the IC50 turned out to be 1.41 nM in assay [1] (Bos taurus, BAEC, 30 h) and 41 nM in assay [2].
